Measured values published in US9833497B2, “Human originated EGF domain proteins and use of the same” (CHENGDU SOURCEBIO LIMITED-LIABILITY COMPANY, priority 2013, dated 2017).

Experiments:
Format in all cases: cell-based
[1] = system: E. coli DH5α; test: Antibacterial activity: MIC and growth curve against E. coli DH5α in 96-well plate; conditions: minimal inhibitory concentration against E. coli DH5α; 96-well plate, 5×10^5 CFU/mL, 37° C., judged after 8 h
Summary of the method: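 Log-phase bacteria (OD600 ~0.5) resuspended in LB at 5×10^5 CFU/mL, exposed to recombinant protein at 50, 25, 12.5 μg/mL final in triplicate, 37 °C shaking at 175 rpm. OD600 read every 30 min; MIC is lowest concentration showing no growth.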

[2] = system: E. coli BL21; test: MIC against Gram-negative bacteria: E. coli BL21
Summary of the method: (§1)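 Bacteria grown in LB at 37° C to McFarland 0.5, resuspended and seeded at 5×10^5 CFU/mL in 96-well plates. Purified human EGF-domain proteins two-fold serially diluted, triplicate wells; cultured at 37° C, shaking 175 rpm. MIC = lowest protein concentration with no growth.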

[3] = system: Pseudomonas aeruginosa; test: MIC against Gram-negative bacteria: Pseudomonas aeruginosa; conditions: for MIC against P. aeruginosa: Pseudomonas aeruginosa
Summary of the method: as §1

[4] = system: Klebsiella pneumonia; test: MIC against Gram-negative bacteria: Klebsiella pneumonia; conditions: for MIC against K. pneumonia: Klebsiella pneumonia
Summary of the method: as §1

[5] = system: Enterobacter cloacae; test: MIC against Gram-negative bacteria: Enterobacter cloacae; conditions: for MIC against E. cloacae: Enterobacter cloacae
Summary of the method: as §1

[6] = system: Aeromonas hydrophila; test: MIC against Gram-negative bacteria: Aeromonas hydrophila; conditions: for MIC against A. hydrophila: Aeromonas hydrophila
Summary of the method: as §1

[7] = system: Citrobacter diversus; test: MIC against Gram-negative bacteria: Citrobacter diversus; conditions: for MIC against C. diversus: Citrobacter diversus
Summary of the method: as §1

[8] = system: Moraxella catarrhalis; test: MIC against Gram-negative bacteria: Moraxella catarrhalis; conditions: for MIC against M. catarrhalis: Moraxella catarrhalis
Summary of the method: as §1

[9] = system: Proteus mirabilis; test: MIC against Gram-negative bacteria: Proteus mirabilis; conditions: for MIC against P. mirabilis: Proteus mirabilis
Summary of the method: as §1

[10] = system: Proteus vulgaris; test: MIC against Gram-negative bacteria: Proteus vulgaris; conditions: for MIC against P. vulgaris: Proteus vulgaris
Summary of the method: as §1

[11] = system: Serratia marcescens; test: MIC against Gram-negative bacteria: Serratia marcescens; conditions: for MIC against S. marcescens: Serratia marcescens
Summary of the method: as §1

[12] = 10 h cultivation at 37° C., 5×10^5 CFU/mL, two-fold serial dilution
[13] = 96-well plate, 5×10^5 CFU/mL, 37° C., 10 h
[14] = E. coli BL21, 10 h cultivation at 37° C., 5×10^5 CFU/mL
[15] = P. aeruginosa, 10 h cultivation at 37° C., 5×10^5 CFU/mL
[16] = K. pneumonia, 10 h cultivation at 37° C., 5×10^5 CFU/mL
[17] = E. cloacae, 10 h cultivation at 37° C., 5×10^5 CFU/mL
[18] = A. hydrophila, 10 h cultivation at 37° C., 5×10^5 CFU/mL
[19] = C. diversus, 10 h cultivation at 37° C., 5×10^5 CFU/mL
[20] = M. catarrhalis, 10 h cultivation at 37° C., 5×10^5 CFU/mL
[21] = P. mirabilis, 10 h cultivation at 37° C., 5×10^5 CFU/mL
[22] = P. vulgaris, 10 h cultivation at 37° C., 5×10^5 CFU/mL
[23] = S. marcescens, 10 h cultivation at 37° C., 5×10^5 CFU/mL
[24] = 5×10^5 CFU/mL, 10 h cultivation at 37° C.

PRT1174 (DLNYCGTHQPCLNGGTCSNTGPDKYQCSCPEGYSGPNCE; listed as Homo sapiens)
MIC [1]: 12.5 µg/mL | MIC E. coli BL21 [2, 12]: 50 µg/mL | MIC P. aeruginosa [3, 12]: 12.5 µg/mL | MIC K. pneumonia [4, 12]: 50 µg/mL | MIC E. cloacae [5, 12]: 12.5 µg/mL | MIC A. hydrophila [6, 12]: 50 µg/mL | MIC C. diversus [7, 12]: 12.5 µg/mL | MIC M. catarrhalis [8, 12]: 50 µg/mL | MIC P. mirabilis [9, 12]: 12.5 µg/mL | MIC P. vulgaris [10, 12]: 25 µg/mL | MIC S. marcescens [11, 12]: 50 µg/mL

PRT1240 (WGPDCRESCPCHPHGQCEPATGACQCQADRWGARCE; listed as Homo sapiens)
MIC [1]: 12.5 µg/mL | MIC against E. coli BL21 ([2]; E. coli BL21, 96-well plate, 5×10^5 CFU/mL, 37° C., 10 h): 50 µg/mL | MIC against P. aeruginosa [3, 13]: 12.5 µg/mL | MIC against K. pneumonia [4, 13]: 12.5 µg/mL | MIC against E. cloacae [5, 13]: 25 µg/mL | MIC against A. hydrophila [6, 13]: 12.5 µg/mL | MIC against C. diversus [7, 13]: 25 µg/mL | MIC against M. catarrhalis [8, 13]: 50 µg/mL | MIC against P. mirabilis [9, 13]: 25 µg/mL | MIC against P. vulgaris [10, 13]: 12.5 µg/mL | MIC against S. marcescens [11, 13]: 25 µg/mL

PRT767 (AIDLCAEGTHGCEHHCVNSPGSYFCHCQVGFVLQQDQ; listed as Homo sapiens)
MIC [1]: 25 µg/mL | MIC (μg/mL) E. coli BL21 [2, 14]: 50 µg/mL | MIC (μg/mL) P. aeruginosa [3, 15]: 25 µg/mL | MIC (μg/mL) K. pneumonia [4, 16]: 12.5 µg/mL | MIC (μg/mL) E. cloacae [5, 17]: 50 µg/mL | MIC (μg/mL) A. hydrophila [6, 18]: 12.5 µg/mL | MIC (μg/mL) C. diversus [7, 19]: 25 µg/mL | MIC (μg/mL) M. catarrhalis [8, 20]: 50 µg/mL | MIC (μg/mL) P. mirabilis [9, 21]: 25 µg/mL | MIC (μg/mL) P. vulgaris [10, 22]: 12.5 µg/mL | MIC (μg/mL) S. marcescens [11, 23]: 50 µg/mL

PRT1008 (ELDACQSQPCHNHGTCTPKPGGFHCACPPGFVGLRCE; listed as Homo sapiens)
MIC [1]: 50 µg/mL | MIC ([2]; E. coli BL21, 10 h cultivation at 37° C.): 12.5 µg/mL | MIC ([3]; P. aeruginosa, 10 h cultivation at 37° C.): 12.5 µg/mL | MIC ([4]; K. pneumonia, 10 h cultivation at 37° C.): 12.5 µg/mL | MIC ([5]; E. cloacae, 10 h cultivation at 37° C.): 50 µg/mL | MIC ([6]; A. hydrophila, 10 h cultivation at 37° C.): 12.5 µg/mL | MIC ([7]; C. diversus, 10 h cultivation at 37° C.): 50 µg/mL | MIC ([8]; M. catarrhalis, 10 h cultivation at 37° C.): 12.5 µg/mL | MIC ([9]; P. mirabilis, 10 h cultivation at 37° C.): 25 µg/mL | MIC ([10]; P. vulgaris, 10 h cultivation at 37° C.): 50 µg/mL | MIC ([11]; S. marcescens, 10 h cultivation at 37° C.): 25 µg/mL

PRT179 (RVDRCSLQPCRNGGLCLDLGHALRCRCRAGFAGPRCE; listed as Homo sapiens)
MIC [1]: 50 µg/mL | MIC (μg/mL) E. coli BL21 [2, 14]: 25 µg/mL | MIC (μg/mL) P. aeruginosa [3, 15]: 12.5 µg/mL | MIC (μg/mL) K. pneumonia [4, 16]: 25 µg/mL | MIC (μg/mL) E. cloacae [5, 17]: 50 µg/mL | MIC (μg/mL) A. hydrophila [6, 18]: 12.5 µg/mL | MIC (μg/mL) C. diversus [7, 19]: 25 µg/mL | MIC (μg/mL) M. catarrhalis [8, 20]: 12.5 µg/mL | MIC (μg/mL) P. mirabilis [9, 21]: 25 µg/mL | MIC (μg/mL) P. vulgaris [10, 22]: 12.5 µg/mL | MIC (μg/mL) S. marcescens [11, 23]: 12.5 µg/mL

PRT1455 (DWDECVDSAEHDCSPAAWCINLEGSYTCQCRTTRDATPSRAGRACE; listed as Homo sapiens)
MIC [1]: 25 µg/mL | MIC against E. coli BL21 ([2]; E. coli BL21, 5×10^5 CFU/mL, 10 h cultivation at 37° C.): 12.5 µg/mL | MIC against P. aeruginosa [3, 24]: 25 µg/mL | MIC against K. pneumonia [4, 24]: 25 µg/mL | MIC against E. cloacae [5, 24]: 12.5 µg/mL | MIC against A. hydrophila [6, 24]: 25 µg/mL | MIC against C. diversus [7, 24]: 12.5 µg/mL | MIC against M. catarrhalis [8, 24]: 12.5 µg/mL | MIC against P. mirabilis [9, 24]: 12.5 µg/mL | MIC against P. vulgaris [10, 24]: 12.5 µg/mL | MIC against S. marcescens [11, 24]: 25 µg/mL
